Values after ≈ are worked out from the molar mass of the structure shown.
Tests used:
[1] = test system: Mycobacterium tuberculosis; experiment: Antitubercular activity against low oxygen adapted Mycobacterium tuberculosis H37Rv; type: functional
[2] = test system: Mycobacterium tuberculosis; experiment: Antitubercular activity against multidrug resistant Mycobacterium tuberculosis; type: functional

**Q.** How did the MIC [1] turn out when COc1ccc(-c2cc(CN3CCSCC3)c(C)n2-c2ccc(F)cc2)cc1 was run?
**A.** 10.1 µM (≈ 4 µg/mL)

**Q.** With CC1(C)CCC(NC(=O)c2cc3c(F)cc(F)cc3[nH]2)CC1 as the compound, how does the MIC [2] read?
**A.** < 0.04 µM

**Q.** With CC1(C)CCC(NC(=O)c2cc3c(Cl)cc(Cl)cc3[nH]2)CC1 as the compound, how does the MIC [2] read?
**A.** < 0.04 µM

**Q.** Cc1c(CN2CCOCC2)cc(-c2ccc(C(C)C)cc2)n1-c1ccc(F)cc1 was tested. Which MIC [1] did it give?
**A.** 28.7 µM (≈ 11.3 µg/mL)

— ChEMBL document CHEMBL5244240, “MmpL3 inhibitors as antituberculosis drugs” (Eur J Med Chem, 2020)
